Measured values published in patent US8119681B2, “2-[1-phenyl-5-hydroxy or methoxy-4alpha-methyl-hexahydrocyclopenta [ƒ]indazole-5-YL]ethyl phenyl derivatives as glucocorticoid receptor ligands” (Merck Sharp & Dohme Corp., priority 2006, dated 2012).

What follows are compounds tested against T1, human GR (Homo sapiens, UniProt P04150) (assay: Transrepression Assay (GITAR), TNFα-β-lactamase reporter gene in U937 cells). Settings: U-937, read-out: maximal activity in the transrepression assay.
T1 sequence (P04150 1-777): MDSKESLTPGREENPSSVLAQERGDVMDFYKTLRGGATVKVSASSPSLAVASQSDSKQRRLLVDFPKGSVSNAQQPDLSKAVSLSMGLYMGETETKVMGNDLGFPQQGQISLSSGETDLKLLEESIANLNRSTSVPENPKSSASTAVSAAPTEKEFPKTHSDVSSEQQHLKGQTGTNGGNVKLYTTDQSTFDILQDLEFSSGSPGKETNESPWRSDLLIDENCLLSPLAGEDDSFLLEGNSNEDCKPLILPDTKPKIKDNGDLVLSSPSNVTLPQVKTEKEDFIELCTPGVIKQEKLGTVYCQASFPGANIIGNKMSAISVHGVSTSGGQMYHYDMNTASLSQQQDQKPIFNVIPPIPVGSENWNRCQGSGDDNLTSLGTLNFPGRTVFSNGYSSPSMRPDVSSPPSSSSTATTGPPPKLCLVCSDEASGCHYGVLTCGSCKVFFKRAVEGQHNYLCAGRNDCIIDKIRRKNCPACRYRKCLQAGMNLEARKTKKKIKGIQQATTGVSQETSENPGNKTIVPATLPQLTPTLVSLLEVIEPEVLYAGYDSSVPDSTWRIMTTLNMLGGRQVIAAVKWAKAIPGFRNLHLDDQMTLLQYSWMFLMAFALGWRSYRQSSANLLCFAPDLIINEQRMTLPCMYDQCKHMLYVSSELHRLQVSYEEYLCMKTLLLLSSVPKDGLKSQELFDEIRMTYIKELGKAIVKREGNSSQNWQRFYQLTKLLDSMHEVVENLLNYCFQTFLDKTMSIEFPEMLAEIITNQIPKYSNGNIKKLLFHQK
Format: cell-based
Design: U937 cells contain an endogenous glucocorticoid receptor (GR); endogenous in cells; host or cells: U937 cells stably transfected with the TNF-α promoter/β-lactamase reporter only
Description: Transrepression Assay (GITAR)
This assay assesses the ability of test compounds to control transcription from the TNFα-β-lactamase reporter gene in U937 cells, a human myelomonocytic leukemia cell line that naturally expresses the human GR. The assay measures compound dependent-repression of the TNFa promoter linked to a reporter gene.
The human U937 cells that had been stably transfected with the TNF-α promoter driving β-lactamase are used for this assay. U937 cells contain an endogenous glucocorticoid receptor (GR). […] 50,000 cells/well are plated in 96 well black-walled plates the day of assay. Test compounds are added 10 μL/well, and cells are incubated at 37° C. for 30˜45 min. For assaying compounds, first dilute 1:10 in DMSO to make 1 mM, then further dilute 1:100 in medium to make 10× stock prior to adding to the cells. Add 50 ng/ml PMA (Sigma, cat# P8139) 10 μL/well to a final concentration 5 ng/ml, and 1 μg/ml LPS (Sigma, cat# L4130) 10 μL/well to a final concentration 100 ng/ml. Incubate cells at 370 C overnight for ˜18 hr. PMA is stored frozen as 100 μg/ml stock in DMSO. Dilute 1:10 in DMSO for a working stock of 10 μg/ml and store at −20 C. For assaying, dilute the 10 μg/ml working stock 1:200 in medium to make a 10× solution (50 ng/ml). Store frozen LPS at 1 mg/ml in PBS, dilute 1:1000 in medium to make 10× (1 μg/ml) for the assay. Add 6× loading buffer (CCF2-AM) 20 μL/well, and incubate at room temperature for 70˜90 min. […] The activity repressed by 100 nM dexamethasone alone is set as 100% activity.

Q: With `CCNC(=O)Oc1ccccc1CC[C@]1(O)CCC2=Cc3c(cnn3-c3ccc(F)cc3)C[C@@]21C` [Example 18, 2-{2-[(4αS,5R)-1-(4-fluorophenyl)-5-hydroxy-4α-methyl-1,4,4α,5,6,7-hexahydrocyclopenta[f]indazol-5-yl]ethyl}phenyl ethylcarbamate] as the compound, how does the Emax read?
A: 5 to 100%

Same assay, conditions: U-937; 100 nM dexamethasone = 100% activity; read-out: maximal activity in the transrepression assay

Q: For `C[C@]12Cc3cnn(-c4ccc(F)cc4)c3C=C1CC[C@@]2(O)CCc1ccccc1C(=O)O` [Example 1, 2-{2-[(4αS,5R)-1-(4-Fluorophenyl)-5-hydroxy-4α-methyl-1,4,4α,5,6,7-hexahydrocyclopenta[f]indazol-5-yl]ethyl}benzoic acid], which Emax is on record?
A: 5 to 100%

Q: For `C[C@]12Cc3cnn(-c4ccc(F)cc4)c3C=C1CC[C@@]2(O)CCc1ccccc1CNC(=O)C1CC1` [Example 4], which Emax is on record?
A: 5 to 100%

Q: `CCOC(=O)NCc1ccccc1CC[C@]1(O)CCC2=Cc3c(cnn3-c3ccc(F)cc3)C[C@@]21C` [Example 6, Ethyl(2-(2-[(4αS,5R)-1-(4-fluorophenyl)-5-hydroxy-4α-methyl-1,4,4α,5,6,7-hexahydrocyclopenta(f)indazol-5-yl]ethyl)benzyl)carbamate] was tested. Which Emax did it give?
A: 5 to 100%

Q: With `C[C@]12Cc3cnn(-c4ccc(F)cc4)c3C=C1CC[C@@]2(O)CCc1ccccc1C1(NS(=O)(=O)C2CC2)CC1` [Example 7, N-[1-(2-{2-[(4αS,5R)-1-(4-Fluorophenyl)-5-hydroxy-4α-methyl-1,4,4α,5,6,7-hexahydrocyclopenta[f]indazol-5-yl]ethyl}phenyl)cyclopropyl]cyclopropanesulfonamide] as the compound, how does the Emax read?
A: 5 to 100%

Q: With `C[C@@H](NS(=O)(=O)C1CC1)c1ccccc1CC[C@]1(O)CCC2=Cc3c(cnn3-c3ccc(F)cc3)C[C@@]21C` [Example 8, N-[(1R)-1-(2-{2-[(4αS,5R)-1-(4-Fluorophenyl)-5-hydroxy-4α-methyl-1,4,4α,5,6,7-hexahydrocyclopenta[f]indazol-5-yl]ethyl}phenyl)ethyl]cyclopropanesulfonamide] as the compound, how does the Emax read?
A: 5 to 100%

Q: `CCNC(=O)OCc1ccccc1CC[C@]1(O)CCC2=Cc3c(cnn3-c3ccc(F)cc3)C[C@@]21C` [Example 9] was tested. Which Emax did it give?
A: 5 to 100%

Q: For `C[C@]12Cc3cnn(-c4ccc(F)cc4)c3C=C1CC[C@@]2(O)CCc1ccccc1-c1ccc(F)nc1` [Example 10, (4αS,5R)-1-(4-fluorophenyl)-5-{2-[2-(6-fluoropyridin-3-yl)phenyl]ethyl}-4α-methyl-1,4,4α,5,6,7-hexahydrocyclopenta[f]indazol-5-ol], which Emax is on record?
A: 5 to 100%

Q: How did the Emax turn out when `CCOC(=O)Nc1ccccc1CC[C@]1(O)CCC2=Cc3c(cnn3-c3ccc(F)cc3)C[C@@]21C` [Example 12, ethyl (2-{2-[(4αS,5R)-1-(4-fluorophenyl)-5-hydroxy-4α-methyl-1,4,4α,5,6,7-hexahydrocyclopenta[f]indazol-5-yl]ethyl}phenyl)carbamate] was run?
A: 5 to 100%

Q: Which Emax does the source give for `CCNC(=O)Nc1ccccc1CC[C@]1(O)CCC2=Cc3c(cnn3-c3ccc(F)cc3)C[C@@]21C` [Example 13, N-ethyl-N′-(2-{2-[(4αS,5R)-1-(4-fluorophenyl)-5-hydroxy-4α-methyl-1,4,4α,5,6,7-hexahydrocyclopenta[f]indazol-5-yl]ethyl}phenyl)urea] here?
A: 5 to 100%

Q: Which Emax does the source give for `C[C@]12Cc3cnn(-c4ccc(F)cc4)c3C=C1CC[C@@]2(O)CCc1ccccc1O` [Example 16, (4αS,5R)-1-(4-fluorophenyl)-5-[2-(2-hydroxyphenyl)ethyl]-4α-methyl-1,4,4α,5,6,7-hexahydrocyclopenta[f]indazol-5-ol] here?
A: 5 to 100%

Q: With `CCOC(=O)Oc1ccccc1CC[C@]1(O)CCC2=Cc3c(cnn3-c3ccc(F)cc3)C[C@@]21C` [Example 17, Ethyl-(2-(2-[(4αS,5R)-1-(4-fluorophenyl)-5-hydroxy-4α-methyl-1,4,4α,5,6,7-hexahydrocyclopenta(f)indazol-5-yl]ethyl)phenyl)carbonate] as the compound, how does the Emax read?
A: 5 to 100%

Q: Which Emax does the source give for `C[C@]12Cc3cnn(-c4ccc(F)cc4)c3C=C1CC[C@@]2(O)CCc1ccccc1C#N` [Example 20, 2-{2-[(4αS,5R)-1-(4-fluorophenyl)-5-hydroxy-4α-methyl-1,4,4α,5,6,7-hexahydrocyclopenta[f]indazol-5-yl]ethyl}benzonitrile] here?
A: 5 to 100%

Q: With `C[C@]12Cc3cnn(-c4ccc(F)cc4)c3C=C1CC[C@@]2(O)CCc1ccccc1C=O` [Example 21, 2-{2-[(4αS,5R)-1-(4-Fluorophenyl)-5-hydroxy-4α-methyl-1,4,4α,5,6,7-hexahydrocyclopenta[f]indazol-5-yl]ethyl}benzaldehyde] as the compound, how does the Emax read?
A: 5 to 100%

Q: With `C[C@]12Cc3cnn(-c4ccc(F)cc4)c3C=C1CC[C@@]2(O)CCc1ccccc1S(N)(=O)=O` [Example 22, 2-{2-[(4αS,5R)-1-(4-fluorophenyl)-5-hydroxy-4α-methyl-1,4,4α,5,6,7-hexahydrocyclopenta[f]indazol-5-yl]ethyl}benzenesulfonamide] as the compound, how does the Emax read?
A: 5 to 100%

Q: `CCOC1(OCC)CN(C(=O)c2ccccc2CC[C@]2(O)CCC3=Cc4c(cnn4-c4ccc(F)cc4)C[C@@]32C)C1` [Example 24, (4αS,5R)-5-(2-{2-[(3,3-diethoxyazetidin-1-yl)carbonyl]phenyl}ethyl)-1-(4-fluorophenyl)-4α-methyl-1,4,4α,5,6,7-hexahydrocyclopenta[f]indazol-5-ol] was tested. Which Emax did it give?
A: 5 to 100%

Q: How did the Emax turn out when `CC(C)(C)CNC(=O)c1ccccc1CC[C@]1(O)CCC2=Cc3c(cnn3-c3ccc(F)cc3)C[C@@]21C` [Example 25, N-(2,2-dimethylpropyl)-2-{2-[(4αS,5R)-1-(4-fluorophenyl)-5-hydroxy-4α-methyl-1,4,4α,5,6,7-hexahydrocyclopenta[f]indazol-5-yl]ethyl}benzamide] was run?
A: 5 to 100%

Q: Which Emax does the source give for `CCNC(=O)c1ccccc1CC[C@]1(O)CCC2=Cc3c(cnn3-c3ccccc3)C[C@@]21C` [Example 27, N-ethyl-2-{2-[(4αS,5R)-5-hydroxy-4α-methyl-1-phenyl-1,4,4α,5,6,7-hexahydrocyclopenta[f]indazol-5-yl]ethyl}benzamide] here?
A: 5 to 100%

Q: How did the Emax turn out when `CCNC(=O)c1ccccc1CC[C@]1(O)CCC2=Cc3c(cnn3-c3cccc(F)c3)C[C@@]21C` [Example 36, N-ethyl-2-{2-[(4αS,5R)-1-(3-fluorophenyl)-5-hydroxy-4α-methyl-1,4,4α,5,6,7-hexahydrocyclopenta[f]indazol-5-yl]ethyl}benzamide] was run?
A: 5 to 100%

Q: `CC1(NC(=O)c2ccccc2CC[C@]2(O)CCC3=Cc4c(cnn4-c4ccc(F)c(F)c4)C[C@@]32C)CC1` [Example 39, 2-{2-[(4αS,5R)-1-(3,4-difluorophenyl)-5-hydroxy-4α-methyl-1,4,4α,5,6,7-hexahydrocyclopenta[f]indazol-5-yl]ethyl}-N-(1-methylcyclopropyl)benzamide] was tested. Which Emax did it give?
A: 5 to 100%

Q: How did the Emax turn out when `C=CCN(C)C(=O)c1ccccc1CC[C@]1(O)CCC2=Cc3c(cnn3-c3ccc(F)cc3)C[C@@]21C` [Example 50, N-allyl-2-{2-[(4αS,5R)-1-(4-fluorophenyl)-5-hydroxy-4α-methyl-1,4,4α,5,6,7-hexahydrocyclopenta[f]indazol-5-yl]ethyl}-N-methylbenzamide] was run?
A: 5 to 100%

Q: For `C=C(F)CNC(=O)c1ccccc1CC[C@]1(O)CCC2=Cc3c(cnn3-c3ccc(F)cc3)C[C@@]21C` [Example 53, 2-{2-[(4αS,5R)-1-(4-fluorophenyl)-5-hydroxy-4α-methyl-1,4,4α,5,6,7-hexahydrocyclopenta[f]indazol-5-yl]ethyl}-N-(2-fluoroprop-2-en-1-yl)benzamide], which Emax is on record?
A: 5 to 100%

Q: For `C[C@]12Cc3cnn(-c4ccc(F)cc4)c3C=C1CC[C@@]2(O)CCc1ccccc1C(=O)N1CC[C@H](F)C1` [Example 54, (4αS,5R)-1-(4-fluorophenyl)-5-[2-(2-{[(3S)-3-fluoropyrrolidin-1-yl]carbonyl}phenyl)ethyl]-4α-methyl-1,4,4α,5,6,7-hexahydrocyclopenta[f]indazol-5-ol], which Emax is on record?
A: 5 to 100%
